Results published in ChEMBL document CHEMBL1133939, “Structure-activity relationship studies of a bisbenzimidazole-based, Zn(2+)-dependent inhibitor of HCV NS3 serine protease” (Bioorg Med Chem Lett, 2001).

The molecules below were run against T1, NS3 (Hepatitis C virus, UniProt A3EZJ3) (assay: Inhibitory activity against hepatitis C virus (HCV) NS3 protease in the presence of Zn2+.).
Parameters: species or system Hepacivirus hominis

T1 sequence (A3EZJ3 whole entry): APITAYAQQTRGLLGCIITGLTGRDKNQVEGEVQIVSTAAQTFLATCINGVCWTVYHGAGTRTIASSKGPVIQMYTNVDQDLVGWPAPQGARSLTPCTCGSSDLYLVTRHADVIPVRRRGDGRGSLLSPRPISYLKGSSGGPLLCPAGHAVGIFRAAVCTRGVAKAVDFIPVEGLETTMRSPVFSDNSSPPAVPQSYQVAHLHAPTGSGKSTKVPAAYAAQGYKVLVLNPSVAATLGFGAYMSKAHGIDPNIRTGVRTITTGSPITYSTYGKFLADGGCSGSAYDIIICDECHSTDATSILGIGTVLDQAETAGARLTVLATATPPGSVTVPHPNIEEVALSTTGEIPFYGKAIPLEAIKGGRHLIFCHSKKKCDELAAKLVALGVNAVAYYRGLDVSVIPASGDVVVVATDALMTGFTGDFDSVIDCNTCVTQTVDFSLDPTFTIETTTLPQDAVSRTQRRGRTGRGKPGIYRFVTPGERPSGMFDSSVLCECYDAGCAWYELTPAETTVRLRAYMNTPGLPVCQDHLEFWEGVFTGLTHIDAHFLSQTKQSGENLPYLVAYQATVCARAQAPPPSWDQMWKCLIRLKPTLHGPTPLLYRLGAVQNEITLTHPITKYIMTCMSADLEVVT

| Compound | IC50 [µM] |
| --- | --- |
| Cn1c(Cc2nc3cc(C(N)=O)ccc3[nH]2)nc2ccc(C(=O)NCCc3ccc(OCC(=O)O)cc3)cc21 | 16 |
| Cn1c(Cc2nc3ccc(C(N)=O)cc3[nH]2)nc2ccc(C(=O)NC(Cc3ccc(C(=O)O)c(OCC(=O)O)c3)C(=O)O)cc21 (configuration not stated) | 9 |
| COC(=O)c1ccccc1S(=O)(=O)NC(=O)C[C@H](NC(=O)c1ccc2nc(Cc3nc4ccc(C(N)=O)cc4[nH]3)n(C)c2c1)C(=O)OCc1ccccc1 | 37 |
| COC(=O)c1ccccc1S(=O)(=O)NC(=O)CC(NC(=O)c1ccc2nc(Cc3nc4ccc(C(N)=O)cc4[nH]3)n(C)c2c1)C(=O)O (configuration not stated) | 8.1 |
| COC(=O)c1ccccc1S(=O)(=O)NC(=O)CC[C@H](NC(=O)c1ccc2nc(Cc3nc4cc(C(N)=O)ccc4[nH]3)n(C)c2c1)C(=O)OCc1ccccc1 | 29 |
| COC(=O)c1ccccc1S(=O)(=O)NC(=O)CC(NC(=O)c1ccc2nc(Cc3nc4ccccc4[nH]3)n(C)c2c1)C(=O)O (configuration not stated) | 11 |
| Cn1c(Cc2nc3ccc(C(N)=O)cc3[nH]2)nc2ccc(C(=O)NC(CCC(=O)NS(=O)(=O)c3ccccc3C(=O)O)C(=O)O)cc21 (configuration not stated) | 2.6 |
| Cn1c(Cc2nc3ccccc3[nH]2)nc2ccc(C(=O)NC(CC(=O)NS(=O)(=O)c3ccccc3C(=O)O)C(=O)O)cc21 (configuration not stated) | 3.4 |
| Cn1c(Cc2nc3ccc(C(N)=O)cc3[nH]2)nc2ccc(C(=O)NC(Cc3ccc(OCC(=O)O)cc3)C(=O)O)cc21 (configuration not stated) | 1 |
| Cn1c(Cc2nc3ccccc3[nH]2)nc2ccc(C(=O)NC(CCC(=O)N(CC(=O)O)CC(=O)O)C(=O)O)cc21 (configuration not stated) | 7.7 |
| Cn1c(Cc2nc3ccc(C(N)=O)cc3[nH]2)nc2ccc(C(=O)Nc3ccc(C(=O)NC(CCC(=O)O)C(=O)O)cc3)cc21 (configuration not stated) | 17 |
| Cn1c(Cc2nc3ccc(C(N)=O)cc3[nH]2)nc2ccc(C(=O)Nc3cccc(C(=O)NCCCC(=O)O)c3)cc21 | 43 |
| Cn1c(Cc2nc3ccccc3[nH]2)nc2ccc(C(=O)NCCc3ccc(OCC(=O)NS(=O)(=O)c4ccccc4)cc3)cc21 | 12 |
| Cn1c(Cc2nc3ccc(C(N)=O)cc3[nH]2)nc2ccc(C(=O)Nc3cccc(C(=O)NC(CCC(=O)O)C(=O)O)c3)cc21 (configuration not stated) | 6.4 |
| Cn1c(Cc2nc3cc(C(N)=O)ccc3[nH]2)nc2ccc(C(=O)Nc3cc(C(=O)O)cc(C(=O)NC(CC(=O)O)C(=O)O)c3)cc21 (configuration not stated) | 1 |
| Cn1c(Cc2nc3ccc(C(N)=O)cc3[nH]2)nc2ccc(C(=O)NC(Cc3cc(OCC(=O)O)ccc3C(=O)O)C(=O)O)cc21 (configuration not stated) | 12 |
| Cn1c(Cc2nc3cc(C(N)=O)ccc3[nH]2)nc2ccc(C(=O)NC(CC(=O)NS(=O)(=O)c3ccccc3C(=O)O)C(=O)O)cc21 (configuration not stated) | 1.6 |

The next lines start with the values.

| IC50 [µM] | Compound |
| --- | --- |
| 0.51 | Cn1c(Cc2nc3ccc(C(N)=O)cc3[nH]2)nc2ccc(C(=O)NC(CCCCCP(=O)(O)O)C(=O)O)cc21 (configuration not stated) |
| 0.82 | Cn1c(Cc2nc3cc(C(N)=O)ccc3[nH]2)nc2ccc(C(=O)NC(CCCP(=O)(O)O)C(=O)O)cc21 (configuration not stated) |
| 25 | Cn1c(Cc2nc3cc(C(N)=O)ccc3[nH]2)nc2ccc(C(=O)NC(Cc3cccc(C(=O)O)c3)C(=O)O)cc21 (configuration not stated) |
| 0.2 | Cn1c(Cc2nc3cc(C(N)=O)ccc3[nH]2)nc2ccc(C(=O)NC(CP(=O)(O)O)C(=O)O)cc21 (configuration not stated) |
| 2 | Cn1c(Cc2nc3cc(C(N)=O)ccc3[nH]2)nc2ccc(C(=O)Nc3cc(C(=O)O)cc(C(=O)NC(CCC(=O)O)C(=O)O)c3)cc21 (configuration not stated) |
| 7 | Cn1c(Cc2nc3ccc(C(N)=O)cc3[nH]2)nc2ccc(C(=O)NC(Cc3ccc(O)c(C(=O)O)c3)C(=O)O)cc21 (configuration not stated) |
| 4 | Cn1c(Cc2nc3cc(C(N)=O)ccc3[nH]2)nc2ccc(C(=O)NC(Cc3ccc(OCC(=O)O)c(C(=O)O)c3)C(=O)O)cc21 (configuration not stated) |
| 2.6 | Cn1c(Cc2nc3cc(C(N)=O)ccc3[nH]2)nc2ccc(C(=O)NC(CC(C(=O)O)C(=O)O)C(=O)O)cc21 (configuration not stated) |
| 0.87 | Cn1c(Cc2nc3cc(C(N)=O)ccc3[nH]2)nc2ccc(C(=O)NC(CCP(=O)(O)O)C(=O)O)cc21 (configuration not stated) |

These molecules were tested against T1, NS3 (assay: Inhibitory activity against hepatitis C virus (HCV) NS3 protease in the absence of Zn2+).
Parameters: species or system Hepacivirus hominis

| IC50 [µM] | Compound |
| --- | --- |
| 167 | Cn1c(Cc2nc3cc(C(N)=O)ccc3[nH]2)nc2ccc(C(=O)NC(CP(=O)(O)O)C(=O)O)cc21 (configuration not stated) |
